Patent US9540343B2 (Gilead Sciences, Inc., priority 2011, dated 2017)

Experiments:
HIV-IIIb = test: Test A: Antiviral assay in MT4 cells; format: cell-based, HIV-1; details: Human immunodeficiency virus 1, IIIB, MT4, 120 h, read-out: % inhibition at 2 μM, percent inhibition of virus-induced cell killing, from dose response curve at 2 uM drug; MT-4 cells infected with HIV-IIIb, 5 days, CellTiter-Glo
in vitro = details: human, uninfected MT-4 cells, CC50 (nM), same protocol as Test A, CellTiter-Glo
In short: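 Cytoprotection read-out: CellTiter-Glo chemiluminescence after 5 days at 37 °C of HIV-IIIb-infected MT-4 cells (m.o.i. 0.003) with compound in 10-point 3-fold dilutions, quadruplicate, 10% FBS. Cytotoxicity (CC50) measured identically without virus.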

Compound | inhibition at 2 µM (HIV-IIIb) | CC50 at 5 days (in vitro)
O=C(Cc1c[nH]c2ccc(F)cc12)N[C@@H](Cc1cc(F)cc(F)c1)c1ncccc1-c1ccc(Cl)cc1 [Example 33, (S)—N-(1-(3-(4-chlorophenyl)pyridin-2-yl)-2-(3,5-difluorophenyl)ethyl)-2-(5-fluoro-1H-indol-3-yl)acetamide] | 75% | 9750 nM
NC(=O)c1cccc(-c2cccnc2[C@H](Cc2cc(F)cc(F)c2)NC(=O)Cn2ccc3c(F)cc(F)cc32)c1 [Example 546C, (S)-3-(2-(1-(2-(4,6-difluoro-1H-indol-1-yl)acetamido)-2-(3,5-difluorophenyl)ethyl)pyridin-3-yl)benzamide] | 15% | 16800 nM
NC(=O)c1cc(-c2cccnc2[C@H](Cc2cc(F)cc(F)c2)NC(=O)Cc2c[nH]c3ccc(O)cc23)ccn1 [Example 310C, (S)-2-(2-(3,5-difluorophenyl)-1-(2-(5-hydroxy-1H-indol-3-yl)acetamido)ethyl)-3,4′-bipyridine-2′-carboxamide] | 97% | > 53000 nM
O=C(Cn1nc(C(F)F)c2c1C(F)(F)C1CC21)N[C@@H](Cc1cc(F)cc(F)c1)c1ncccc1-c1ccc(OC2CC2)cc1 (stereo partly drawn) [Example 268, N—((S)-1-(3-(4-cyclopropoxyphenyl)pyridin-2-yl)-2-(3,5-difluorophenyl)ethyl)-2-(3-(difluoromethyl)-5,5-difluoro-3b,4,4a,5-tetrahydro-1H-cyclopropa[3,4]cyclopenta[1,2-c]pyrazol-1-yl)acetamide] | 27% | 27700 nM
COc1ccc(-c2cccnc2[C@H](Cc2cccc(F)c2)NC(=O)Cn2nc(C(F)(F)F)c3c2CCCC3)cc1 [Example 29, (S)—N-(2-(3-fluorophenyl)-1-(3-(4-methoxyphenyl)pyridin-2-yl)ethyl)-2-(3-(trifluoromethyl)-4,5,6,7-tetrahydro-1H-indazol-1-yl)acetamide] | 36% | 13200 nM
NS(=O)(=O)c1cccc(-c2cccnc2[C@H](Cc2cc(F)cc(F)c2)NC(=O)Cc2c[nH]c3ccc(O)cc23)c1 [Example 44, (S)—N-(2-(3,5-difluorophenyl)-1-(3-(3-sulfamoylphenyl)pyridin-2-yl)ethyl)-2-(5-hydroxy-1H-indol-3-yl)acetamide] | 96% | > 52500 nM
N#Cc1nn(CC(=O)N[C@@H](Cc2cc(F)cc(F)c2)c2ncccc2-c2ccc(F)c(C(N)=O)c2)c2c1CCC2 [Example 211C, (S)-5-(2-(1-(2-(3-cyano-5,6-dihydrocyclopenta[c]pyrazol-1(4H)-yl)acetamido)-2-(3,5-difluorophenyl)ethyl)pyridin-3-yl)-2-fluorobenzamide] | 83% | 36100 nM
NC(=O)c1cc(-c2cccnc2[C@H](Cc2cc(F)cc(F)c2)NC(=O)Cn2nc(C(F)(F)F)c3c2CCC(=O)C3)ccc1F [Example 446, (S)-5-(2-(2-(3,5-difluorophenyl)-1-(2-(5-oxo-3-(trifluoromethyl)-4,5,6,7-tetrahydro-1H-indazol-1-yl)acetamido)ethyl)pyridin-3-yl)-2-fluorobenzamide] | 79% | > 53200 nM
C=Cc1c(C(F)F)nn(CC(=O)N[C@@H](Cc2cc(F)cc(F)c2)c2ncccc2-c2ccc(F)c(C(N)=O)c2)c1C(F)F [Example 553, (S)-5-(2-(1-(2-(3,5-bis(difluoromethyl)-4-vinyl-1H-pyrazol-1-yl)acetamido)-2-(3,5-difluorophenyl)ethyl)pyridin-3-yl)-2-fluorobenzamide] | 11% | 23800 nM
NC(=O)c1cc(-c2cccnc2[C@H](Cc2cc(F)cc(F)c2)NC(=O)Cn2ccc3cc(F)c(Cl)cc32)ccc1F [Example 568, (S)-5-(2-(1-(2-(6-chloro-5-fluoro-1H-indol-1-yl)acetamido)-2-(3,5-difluorophenyl)ethyl)pyridin-3-yl)-2-fluorobenzamide] | 42% | 11400 nM
NC(=O)c1cc(-c2cccnc2[C@H](Cc2cc(F)cc(F)c2)NC(=O)Cn2cc(CO)c(C(F)(F)F)n2)ccc1F [Example 292, (S)-5-(2-(2-(3,5-difluorophenyl)-1-(2-(4-(hydroxymethyl)-3-(trifluoromethyl)-1H-pyrazol-1-yl)acetamido)ethyl)pyridin-3-yl)-2-fluorobenzamide] | 1% | > 53200 nM
NC(=O)c1cc(-c2cccnc2[C@H](Cc2cc(F)cc(F)c2)NC(=O)Cn2nc(C(F)(F)F)c3c2CS(=O)(=O)C3)ccc1F [Example 194, (S)-5-(2-(2-(3,5-difluorophenyl)-1-(2-(5,5-dioxido-3-(trifluoromethyl)-4,6-dihydro-1H-thieno[3,4-c]pyrazol-1-yl)acetamido)ethyl)pyridin-3-yl)-2-fluorobenzamide] | 11% | > 53200 nM
COc1ccc(-c2cccnc2C(Cc2cc(F)cc(F)c2)NC(=O)Cn2nc(C(F)(F)F)c3c2CCCC3)c(C)c1 (stereo not drawn) [Example 6, N-(2-(3,5-difluorophenyl)-1-(3-(4-methoxy-2-methylphenyl)pyridin-2-yl)ethyl)-2-(3-(trifluoromethyl)-4,5,6,7-tetrahydro-1H-indazol-1-yl)acetamide] | 45% | 11400 nM
Cc1[nH]c2ccccc2c1CC(=O)N[C@@H](Cc1cc(F)cc(F)c1)c1ncccc1-c1cccc(C(N)=O)c1 [Example 497, (S)-3-(2-(2-(3,5-difluorophenyl)-1-(2-(2-methyl-1H-indol-3-yl)acetamido)ethyl)pyridin-3-yl)benzamide] | 67% | 27100 nM
CC1Cc2c(C(F)(F)F)nn(CC(=O)N[C@@H](Cc3cc(F)cc(F)c3)c3ncccc3-c3ccc(F)c(C(N)=O)c3)c2C1 (stereo partly drawn) [Example 234, 5-(2-((1S)-2-(3,5-difluorophenyl)-1-(2-(5-methyl-3-(trifluoromethyl)-5,6-dihydrocyclopenta[c]pyrazol-1(4H)-yl)acetamido)ethyl)pyridin-3-yl)-2-fluorobenzamide] | 73% | 15900 nM
Nc1cc(-c2cccnc2[C@H](Cc2cc(F)cc(F)c2)NC(=O)Cc2c[nH]c3ccc(F)cc23)ccc1F [Example 470, (S)—N-(1-(3-(3-amino-4-fluorophenyl)pyridin-2-yl)-2-(3,5-difluorophenyl)ethyl)-2-(5-fluoro-1H-indol-3-yl)acetamide] | 68% | 20800 nM
CC(C)(C)OC(=O)N1CC(=O)C[C@H]1C(=O)N[C@@H](Cc1cc(F)cc(F)c1)c1ncccc1-c1ccc(F)c(C(N)=O)c1 [Example 137, (S)-tert-butyl 2-((S)-1-(3-(3-carbamoyl-4-fluorophenyl)pyridin-2-yl)-2-(3,5-difluorophenyl)ethylcarbamoyl)-4-oxopyrrolidine-1-carboxylate] | 1% | 21700 nM
Cc1ccccc1-c1cccnc1[C@H](Cc1ccccc1)NC(=O)Cc1c[nH]c2ccc(O)cc12 [Example 14, (S)-2-(5-hydroxy-1H-indol-3-yl)-N-(2-phenyl-1-(3-o-tolylpyridin-2-yl)ethyl)acetamide] | 76% | 25400 nM
NC(=O)c1cc(-c2cccnc2[C@H](Cc2cc(F)cc(F)c2)NC(=O)Cn2nc(C(F)(F)F)c3c2CCC=C3)ccc1F [Example 339B, (S)-5-(2-(2-(3,5-difluorophenyl)-1-(2-(3-(trifluoromethyl)-6,7-dihydro-1H-indazol-1-yl)acetamido)ethyl)pyridin-3-yl)-2-fluorobenzamide] | 53% | 19400 nM
Cc1cc2nc(C(F)(F)F)n(CC(=O)N[C@@H](Cc3cc(F)cc(F)c3)c3ncccc3-c3ccc(F)c(C(N)=O)c3)c2cc1C [Example 319, (S)-5-(2-(2-(3,5-difluorophenyl)-1-(2-(5,6-dimethyl-2-(trifluoromethyl)-1H-benzo[d]imidazol-1-yl)acetamido)ethyl)pyridin-3-yl)-2-fluorobenzamide] | 70% | > 52500 nM
NS(=O)(=O)c1cccc(-c2cccnc2[C@H](Cc2cc(F)cc(F)c2)NC(=O)Cc2c[nH]c3ccc(F)cc23)c1 [Example 428, (S)—N-(2-(3,5-difluorophenyl)-1-(3-(3-sulfamoylphenyl)pyridin-2-yl)ethyl)-2-(5-fluoro-1H-indol-3-yl)acetamide] | 94% | 23000 nM
CNC(=O)c1nc2c(C)cccc2n1CC(=O)N[C@@H](Cc1cc(F)cc(F)c1)c1ncccc1-c1ccc(F)c(C(N)=O)c1 [Example 523, (S)-1-(2-(1-(3-(3-carbamoyl-4-fluorophenyl)pyridin-2-yl)-2-(3,5-difluorophenyl)ethylamino)-2-oxoethyl)-N,4-dimethyl-1H-benzo[d]imidazole-2-carboxamide] | 24% | 48800 nM
O=C(Cn1nc(C(F)(F)F)c2c1CCCC2)N[C@@H](Cc1cc(F)cc(F)c1)c1ncccc1-c1cccc(OC(F)(F)F)c1 [Example 84, (S)—N-(2-(3,5-difluorophenyl)-1-(3-(3-(trifluoromethoxy)phenyl)pyridin-2-yl)ethyl)-2-(3-(trifluoromethyl)-4,5,6,7-tetrahydro-1H-indazol-1-yl)acetamide] | 18% | 9050 nM
COc1cc(C)c(-c2cccnc2C(Cc2cc(F)cc(F)c2)NC(=O)Cn2nc(C(F)(F)F)c3c2CCCC3)c(C)c1 (stereo not drawn) [Example 8, N-(2-(3,5-difluorophenyl)-1-(3-(4-methoxy-2,6-dimethylphenyl)pyridin-2-yl)ethyl)-2-(3-(trifluoromethyl)-4,5,6,7-tetrahydro-1H-indazol-1-yl)acetamide] | 20% | 15700 nM
